Source: paper doi:10.1101/2023.10.02.559746v1 (biorxiv, 2023)

Target: T1, RALY (Homo sapiens, UniProt Q9UKM9)
T1 sequence (Q9UKM9 2-306): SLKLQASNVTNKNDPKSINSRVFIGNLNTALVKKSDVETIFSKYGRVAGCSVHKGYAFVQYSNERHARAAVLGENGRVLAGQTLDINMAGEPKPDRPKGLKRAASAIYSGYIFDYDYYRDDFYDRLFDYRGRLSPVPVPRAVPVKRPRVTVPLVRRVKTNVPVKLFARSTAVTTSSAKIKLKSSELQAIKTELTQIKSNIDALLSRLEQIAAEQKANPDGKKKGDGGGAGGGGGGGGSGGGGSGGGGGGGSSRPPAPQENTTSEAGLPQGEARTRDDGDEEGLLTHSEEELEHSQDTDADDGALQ
Test: surface plasmon resonance imaging
Type: binding

Kd: 15.5 µM
SMILES: CC(C)[C@H](CN)NC[C@H](C)NS(=O)(=O)c1ccc(C(C)(C)C)cc1 [2470-51, N-((S)-1-(((R)-1-amino-3-methylbutan-2-yl)amino)propan-2-yl)-4-(tert-butyl)benzenesulfonamide]
